Test results taken from ChEMBL document CHEMBL1201862, “PubChem BioAssay data set” (2004).
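Where inhibition never reached the appropriate level, the endpoint shown equals the highest concentration tested. Otherwise, values were interpolated linearly from a five-concentration, 48-hour dose response in 96-well plates. Here, GI50 denotes the concentration required for 50% inhibition of growth.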 Active and inactive are the calls of the source. Rule as the data show it: active = GI50 up to about 1.1 µM and inactive = higher.

Columns and labels:
Assay in all cases: inhibition of tumour cell growth, NCI panel, 48 h
COLO 205 = tested on: COLO 205
OVCAR-8 = tested on: OVCAR-8
SK-MEL-2 = tested on: SK-MEL-2
OVCAR-5 = tested on: OVCAR-5
OVCAR-4 = tested on: OVCAR-4
DU-145 = tested on: DU-145
RXF 393 = tested on: RXF 393
SR = tested on: SR
MDA-MB-435 = tested on: MDA-MB-435
HCT-15 = tested on: HCT-15
HCT-116 = tested on: HCT-116
SK-MEL-28 = tested on: SK-MEL-28
Hs-578T = tested on: Hs-578T
RPMI-8226 = tested on: RPMI-8226
NCI-H226 = tested on: NCI-H226
PC-3 = tested on: PC-3
HOP-62 = tested on: HOP-62
SF-295 = tested on: SF-295
SW-620 = tested on: SW-620
CCRF-CEM = tested on: CCRF-CEM

SMILES	GI50 (COLO 205)	GI50 (OVCAR-8)	GI50 (SK-MEL-2)	GI50 (OVCAR-5)	GI50 (OVCAR-4)	GI50 (DU-145)	GI50 (RXF 393)	GI50 (SR)	GI50 (MDA-MB-435)	GI50 (HCT-15) [µM]	GI50 (HCT-116)	GI50 (SK-MEL-28)	GI50 (Hs-578T)	GI50 (RPMI-8226)	GI50 (NCI-H226)	GI50 (PC-3)	GI50 (HOP-62)	GI50 (SF-295)	GI50 (SW-620)	GI50 (CCRF-CEM)
OC1COC(n2c3ccc(Br)cc3c3ccc4c5ccccc5[nH]c4c32)C(O)C1O (stereo not given)	1.89 µM (inactive)	3.65 µM (inactive)	0.658 µM (active)	2.92 µM (inactive)	13.5 µM (inactive)	3.66 µM (inactive)	1.76 µM (inactive)	3.67 µM (inactive)	3.89 µM (inactive)	3.37	3.55 µM (inactive)	1.13 µM (inactive)	3.18 µM (inactive)	3.52 µM (inactive)	6.76 µM (inactive)	2.21 µM (inactive)	3.64 µM (inactive)	0.538 µM (active)	0.644 µM (active)	4.72 µM (inactive)
CCCCCCCCCCCCCCCC(=O)OCC(COP(=O)(O)OCCNC(=O)CCSSc1ccccn1)OC(=O)CCCCCCCCCCCCCCC (stereo not given)	> 100 µM (inactive)	> 100 µM (inactive)	> 100 µM (inactive)	> 100 µM (inactive)	> 100 µM (inactive)	> 100 µM (inactive)	> 100 µM (inactive)	> 100 µM (inactive)	> 100 µM (inactive)	> 100	> 100 µM (inactive)	> 100 µM (inactive)	> 100 µM (inactive)	> 100 µM (inactive)	> 100 µM (inactive)	> 100 µM (inactive)	> 100 µM (inactive)	> 100 µM (inactive)	> 100 µM (inactive)	> 100 µM (inactive)
N#CC(NNC(=O)Cc1ccccc1)c1ccccc1O (stereo not given)	12.1 µM (inactive)	12.3 µM (inactive)	30.3 µM (inactive)	26.9 µM (inactive)	11.8 µM (inactive)	20.8 µM (inactive)	24.7 µM (inactive)	7.29 µM (inactive)	27.7 µM (inactive)	4.25	7.26 µM (inactive)	26.2 µM (inactive)	56.2 µM (inactive)	6.87 µM (inactive)	17.3 µM (inactive)	5.79 µM (inactive)	15.8 µM (inactive)	9.68 µM (inactive)	10.2 µM (inactive)	4 µM (inactive)
O=C(c1ccc([N+](=O)[O-])cc1)C(Br)C(Br)c1ccnc2ccccc12 (stereo not given)	13 µM (inactive)	9.08 µM (inactive)	12.6 µM (inactive)	16.5 µM (inactive)	11.7 µM (inactive)	11.8 µM (inactive)	8.93 µM (inactive)	2.24 µM (inactive)	2.98 µM (inactive)	6.76	1.92 µM (inactive)	11.1 µM (inactive)	6.15 µM (inactive)	2.23 µM (inactive)	10.9 µM (inactive)	7.29 µM (inactive)	13.9 µM (inactive)	9.06 µM (inactive)	2.09 µM (inactive)	0.352 µM (active)
